Laboratory results reported in patent US10065990B2, “Cyclic peptide compound, and preparation method, pharmaceutical composition and use thereof” (HANGZHOU GUANYU BIO-MEDICAL CO., LTD, priority 2013, dated 2018).
Read-outs that look alike come from different tables or passages of the source.

Assays:
[1] = biological target: T1, HDAC7 (Homo sapiens, UniProt Q8WUI4); experiment: HDAC biochemical activity measurement (fluorescent substrate deacetylation);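 further: fluorogenic deacetylation assay using acetyl-lysine substrate at 20 µM, enzyme and compound incubated 30 min at 37 °C, then developer added, fluorescence read at 360/460 nm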; conditions: HDAC7; 37° C. 30 minutes
T1 sequence (Q8WUI4 1-952): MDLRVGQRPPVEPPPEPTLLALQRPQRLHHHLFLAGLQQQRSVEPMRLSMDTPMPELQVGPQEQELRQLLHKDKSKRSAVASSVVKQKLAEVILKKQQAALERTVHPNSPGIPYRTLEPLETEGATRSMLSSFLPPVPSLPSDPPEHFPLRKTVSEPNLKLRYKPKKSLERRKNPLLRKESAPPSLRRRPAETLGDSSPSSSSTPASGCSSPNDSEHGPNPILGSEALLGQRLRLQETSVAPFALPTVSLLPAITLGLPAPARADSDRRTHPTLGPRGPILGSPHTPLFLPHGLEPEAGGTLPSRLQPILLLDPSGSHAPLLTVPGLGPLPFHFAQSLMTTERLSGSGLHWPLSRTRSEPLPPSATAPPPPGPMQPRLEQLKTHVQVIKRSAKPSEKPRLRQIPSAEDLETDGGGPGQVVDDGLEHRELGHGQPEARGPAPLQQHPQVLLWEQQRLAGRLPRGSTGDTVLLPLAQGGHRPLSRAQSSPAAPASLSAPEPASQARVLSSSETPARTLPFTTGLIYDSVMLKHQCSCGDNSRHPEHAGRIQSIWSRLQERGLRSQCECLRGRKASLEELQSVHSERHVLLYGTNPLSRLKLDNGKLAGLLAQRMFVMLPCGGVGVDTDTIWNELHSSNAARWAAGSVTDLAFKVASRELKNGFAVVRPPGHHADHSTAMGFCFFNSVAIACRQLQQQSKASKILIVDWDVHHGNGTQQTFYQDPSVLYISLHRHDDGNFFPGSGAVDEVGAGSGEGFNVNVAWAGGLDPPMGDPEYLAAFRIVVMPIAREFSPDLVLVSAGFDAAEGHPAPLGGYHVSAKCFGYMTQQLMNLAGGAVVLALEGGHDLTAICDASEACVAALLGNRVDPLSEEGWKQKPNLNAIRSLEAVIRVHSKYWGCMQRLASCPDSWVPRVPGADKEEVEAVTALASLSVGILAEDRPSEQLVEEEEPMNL
Procedure: The chemical activity of the compound is determined according to the degree of deacetylation inhibition of the HDAC enzyme. This experiment measured the degree of deacetylation related to tumor proliferation and metastasis of HDAC1, HDAC2, HDAC3, HDAC8, HDAC11 five subtypes HDAC enzymes. After the substrate containing an acetylated lysine side chain and HDAC enzyme are labeled with a fluorescent label, the fluorescent substrate is de acetyl. The fluorescent labeled substrate is cleaved by the enzyme, and the fluorescent substance is released, which generates 460 nm emission light under the excitation of 360 nm light.
HDAC substrate was diluted with reaction buffer to 200M (reaction concentration of 20M), the HDAC enzyme was diluted to the appropriate concentration, then added different concentrations of the test compounds and acted at 37° C. 30 minutes, and then added the same volume of 2-times concentration substrate developing solution (developer), incubated at room temperature for 15 minutes. Finally, the last reading measured with a microplate plate reader, excitation light was 360 nm, the emitted light was 460 nm, data processing software was Prime 4, and the results are shown in Table 1.

[2] = test system: KBM-5 (human chronic myelogenous leukemia); experiment: MTT cancer cell growth inhibition; format: cell-based; conditions: Homo sapiens, KBM5, 72 h, MTT, 72 hours incubation, KBM-5 cells; read-out: GI50 KBM-5
Summary of the method: (§1)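 Tumour cells in 10% FBS-supplemented DMEM or RPMI 1640 are plated at 1500 per well, dosed next day with compound (10^−5 through 10^−10 M, final) and kept 72 h. MTT is added for 4 h; dissolved formazan is measured at 570 nm and GI50 determined.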

[3] = test system: DU145 (human prostate cancer cells); experiment: MTT cancer cell growth inhibition; format: cell-based; conditions: MTT, 72 hours incubation, read-out: GI50 Du1
Summary of the method: as §1

[4] = test system: Bel-7402 (human hepatoma cells); experiment: MTT cancer cell growth inhibition; format: cell-based; conditions: MTT, 72 hours incubation, Bel-7402 cells, read-out: GI50 Bel-7402
Summary of the method: as §1

[5] = test system: Hela (human cervical cancer cells); experiment: MTT cancer cell growth inhibition; format: cell-based; conditions: Homo sapiens, HeLa, 72 h, MTT, 72 hours incubation, read-out: GI50 Hela
Summary of the method: as §1

[6] = test system: PANC-1 (Pac-1, human pancreatic cancer cells); experiment: MTT cancer cell growth inhibition; format: cell-based; conditions: Homo sapiens, PANC-1, 72 h, MTT, 72 hours incubation, read-out: GI50 PAN
Summary of the method: as §1

[7] = test system: SGC-7901 (human gastric cancer cells); experiment: MTT cancer cell growth inhibition; format: cell-based; conditions: Homo sapiens, SGC-7901, 72 h, MTT, 72 hours incubation, SGC-7901 cells; read-out: GI50 SGC-7901
Summary of the method: as §1

[8] = test system: lncap (prostate cancer cells); experiment: MTT cancer cell growth inhibition; format: cell-based; conditions: MTT, 72 hours incubation, read-out: GI50 lnca
Summary of the method: as §1

[9] = test system: BGC-823 (human gastric cancer cells); experiment: MTT cancer cell growth inhibition; format: cell-based; conditions: Homo sapiens, BGC-823, 72 h, MTT, 72 hours incubation, read-out: GI50 BG
Summary of the method: as §1

[10] = test system: KBM5-T315I (human chronic myelogenous leukemia); experiment: MTT cancer cell growth inhibition; format: cell-based; conditions: MTT, 72 hours incubation, KBM5-T315I cells, read-out: GI50 KBM5-T315I
Summary of the method: as §1

[11] = test system: HT1080 (human fibrosarcoma cells); experiment: MTT cancer cell growth inhibition; format: cell-based; conditions: MTT, 72 hours incubation, read-out: GI50 HT1
Summary of the method: as §1

[12] = test system: HCC827 (human non-small cell lung cancer cells); experiment: MTT cancer cell growth inhibition; format: cell-based; conditions: Homo sapiens, HCC827, 72 h, MTT, 72 hours incubation, HCC827 cells; read-out: GI50 HCC827
Summary of the method: as §1

[13] = test system: N-87 (human gastric cancer cells); experiment: MTT cancer cell growth inhibition; format: cell-based; conditions: Homo sapiens, 72 h, MTT, 72 hours incubation, N-87 cells; read-out: GI50 N-87
Summary of the method: as §1

[14] = test system: MCF-7 (human breast cancer cells); experiment: MTT cancer cell growth inhibition; format: cell-based; conditions: Homo sapiens, MCF7, 72 h, 72 hours incubation, read-out: GI50 MCF
Summary of the method: as §1

[15] = test system: MDA-MB-231 (breast cancer cells); experiment: MTT cancer cell growth inhibition; format: cell-based
Summary of the method: as §1

[16] = test system: H1975 (non-small cell lung adenocarcinoma); experiment: MTT cancer cell growth inhibition; format: cell-based; conditions: Homo sapiens, NCI-H1975, 72 h, MTT, 72 hours incubation, H1975 cells; read-out: GI50 H1975
Summary of the method: as §1

[17] = test system: U937 (human leukemia cells); experiment: MTT cancer cell growth inhibition; format: cell-based; conditions: Homo sapiens, U-937, 72 h, MTT, 72 hours incubation, read-out: GI50 U93
Summary of the method: as §1

[18] = test system: MOLT-4 (human acute lymphoblastic leukemia cells); experiment: MTT cancer cell growth inhibition; format: cell-based; conditions: MTT, 72 hours incubation, read-out: GI50 Mol
Summary of the method: as §1

[19] = test system: A549 (human lung cancer cells); experiment: MTT cancer cell growth inhibition; format: cell-based; conditions: MTT, 72 hours incubation, read-out: GI50 A54
Summary of the method: as §1

[20] = test system: K562 (human leukemia cells); experiment: MTT cancer cell growth inhibition; format: cell-based; conditions: MTT, 72 hours incubation, K562 cells, read-out: GI50 K562
Summary of the method: as §1

[21] = test system: Huh-7 (human hepatoma cells); experiment: MTT cancer cell growth inhibition; format: cell-based; conditions: Homo sapiens, Huh-7, 72 h, MTT, 72 hours incubation, Huh-7 cells; read-out: GI50 Huh-7
Summary of the method: as §1

[22] = Homo sapiens, MDA-MB-231, 72 h, read-out: GI50 MDA-MB-231, MTT, 72 hours incubation, MDA-MB-231 cells
[23] = Homo sapiens, DU-145, 72 h, DU145 cells
[24] = Homo sapiens, LNCaP, 72 h, lncap cells
[25] = Homo sapiens, HT-1080, 72 h, HT1080 cells
[26] = Homo sapiens, MOLT-4, 72 h, MOLT-4 cells
[27] = Homo sapiens, A549, 72 h, A549 cells

Compound	IC50 HDAC7 [1]	GI50 [2]	GI50 [5]	GI50 [6]	GI50 [7]	GI50 [9]	GI50 [12]	GI50 [13]	GI50 [14]	GI50 [16]	GI50 [17]	GI50 [21]	GI50 ([3]; Homo sapiens, DU-145, 72 h)	GI50 ([4]; Homo sapiens, Bel-7402, 72 h)	GI50 ([8]; Homo sapiens, LNCaP, 72 h)	GI50 ([10]; Homo sapiens, 72 h)	GI50 ([11]; Homo sapiens, HT-1080, 72 h)	GI50 [15, 22]	GI50 ([18]; Homo sapiens, MOLT-4, 72 h)	GI50 ([20]; Homo sapiens, K562, 72 h)	further results
C=C1NC(=O)c2cc(F)cc(n2)CNC(=O)C[C@@H](/C=C/CCS)OC(=O)[C@H](C(C)C)NC1=O [Compound 132]	no activity	24 nM	20 nM	70 nM	28 nM	40 nM	52 nM	57 nM	100 nM	28 nM	40 nM	26 nM	–	–	–	–	–	–	–	–	GI50 [3]: 150 nM; GI50 [4]: 77 nM; GI50 [8]: 30 nM; GI50 [10]: 43 nM; GI50 [11]: 30 nM; GI50 ([15]; read-out: GI50 MDA-MB-231, MTT, 72 hours incubation, MDA-MB-231 cells): 16 nM; GI50 [18]: 30 nM; GI50 [19]: 20 nM; GI50 [20]: 48 nM
C/C=C1\NC(=O)c2nc(ccc2F)CNC(=O)C[C@@H](/C=C/CCS)OC(=O)[C@H](Cc2ccccc2)NC1=O [Compound 115]	no activity	53 nM	80 nM	60 nM	23 nM	60 nM	41 nM	45 nM	70 nM	23 nM	40 nM	99 nM	70 nM	36 nM	80 nM	28 nM	80 nM	36 nM	80 nM	41 nM	GI50 ([19]; Homo sapiens, A549, 72 h): 40 nM
C/C=C1\NC(=O)c2ccc(SCCC)c(n2)CNC(=O)C[C@@H](/C=C/CCSC(=O)CCCCCCC)OC(=O)[C@H](CC)NC1=O [Compound 176]	no activity	34 nM	–	–	31 nM	–	38 nM	28 nM	–	31 nM	–	31 nM	–	31 nM	–	38 nM	–	32 nM	–	21 nM	GI50 [3, 23]: 50 nM; GI50 ([5]; Hela cells): 50 nM; GI50 ([6]; PANC-1 cells): 60 nM; GI50 [8, 24]: 30 nM; GI50 ([9]; BGC-823 cells): 20 nM; GI50 [11, 25]: 30 nM; GI50 ([14]; MCF-7 cells): 10 nM; GI50 ([17]; U937 cells): 10 nM; GI50 [18, 26]: 50 nM; GI50 [19, 27]: 80 nM
C/C=C1\NC(=O)c2cccc(n2)CNC(=O)C[C@@H](/C=C/CCS)OC(=O)[C@H](CC)NC1=O [Example 28]	no activity	73 nM	810 nM	20 nM	34 nM	1100 nM	37 nM	42 nM	930 nM	35 nM	2110 nM	73 nM	430 nM	92 nM	390 nM	51 nM	40 nM	86 nM	80 nM	35 nM	GI50 ([19]; Homo sapiens, A549, 72 h): 420 nM

Compounds with a lower GI50 [2], results first:

IC50 HDAC7 [1]	GI50 [2]	GI50 [5]	GI50 [6]	GI50 [7]	GI50 [9]	GI50 [12]	GI50 [13]	GI50 [14]	GI50 [16]	GI50 [17]	GI50 [21]	GI50 ([3]; Homo sapiens, DU-145, 72 h)	GI50 ([4]; Homo sapiens, Bel-7402, 72 h)	GI50 ([8]; Homo sapiens, LNCaP, 72 h)	GI50 ([10]; Homo sapiens, 72 h)	GI50 ([11]; Homo sapiens, HT-1080, 72 h)	GI50 [15, 22]	GI50 ([18]; Homo sapiens, MOLT-4, 72 h)	GI50 ([20]; Homo sapiens, K562, 72 h)	Compound	further results
no activity	17 nM	–	–	45 nM	–	43 nM	65 nM	–	18 nM	–	35 nM	–	23 nM	–	33 nM	–	63 nM	–	31 nM	C/C=C1\NC(=O)c2nc(ccc2SC)CNC(=O)C[C@@H](/C=C/CCSC(=O)CCCC)OC(=O)[C@H](C(C)C)NC1=O [Compound 156]	GI50 [3, 23]: 80 nM; GI50 ([5]; Hela cells): 30 nM; GI50 ([6]; PANC-1 cells): 50 nM; GI50 [8, 24]: 30 nM; GI50 ([9]; BGC-823 cells): 50 nM; GI50 [11, 25]: 80 nM; GI50 ([14]; MCF-7 cells): 20 nM; GI50 ([17]; U937 cells): 20 nM; GI50 [18, 26]: 10 nM; GI50 [19, 27]: 30 nM
no activity	11 nM	70 nM	50 nM	44 nM	50 nM	93 nM	26 nM	50 nM	79 nM	90 nM	87 nM	50 nM	39 nM	70 nM	51 nM	90 nM	41 nM	90 nM	33 nM	CC(C)=C1NC(=O)c2cccc(n2)CNC(=O)C[C@@H](/C=C/CCS)OC(=O)[C@H](C(C)C)NC1=O [Compound 135]	GI50 ([19]; Homo sapiens, A549, 72 h): 90 nM
